A value given as a limit tells only on which side of the number the result lay.

Assay [1] addresses T1, Diacylglycerol lipase-beta (Homo sapiens, UniProt Q8NCG7).
T1 sequence (Q8NCG7 whole entry): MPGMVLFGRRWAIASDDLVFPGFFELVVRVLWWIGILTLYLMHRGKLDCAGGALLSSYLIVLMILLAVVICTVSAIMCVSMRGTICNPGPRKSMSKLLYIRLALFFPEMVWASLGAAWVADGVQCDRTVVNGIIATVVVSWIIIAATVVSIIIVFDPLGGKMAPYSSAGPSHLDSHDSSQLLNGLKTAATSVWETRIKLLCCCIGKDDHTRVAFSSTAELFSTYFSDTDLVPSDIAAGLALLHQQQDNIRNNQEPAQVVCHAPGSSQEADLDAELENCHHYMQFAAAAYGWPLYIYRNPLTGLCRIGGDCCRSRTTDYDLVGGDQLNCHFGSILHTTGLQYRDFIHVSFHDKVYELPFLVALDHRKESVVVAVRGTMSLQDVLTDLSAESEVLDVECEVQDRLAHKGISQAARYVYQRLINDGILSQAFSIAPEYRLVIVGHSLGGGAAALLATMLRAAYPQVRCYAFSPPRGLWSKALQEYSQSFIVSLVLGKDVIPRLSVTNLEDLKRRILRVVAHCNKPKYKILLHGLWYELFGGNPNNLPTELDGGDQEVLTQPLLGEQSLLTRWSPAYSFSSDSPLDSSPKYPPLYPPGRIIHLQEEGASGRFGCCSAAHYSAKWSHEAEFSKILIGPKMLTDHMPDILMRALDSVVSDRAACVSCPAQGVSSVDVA
Nature of the assay: (§1) In Vitro Inhibition of DAGL: Briefly, membrane proteome (1 mg/ml, 20 μL) was prepared from HEK293T cells (transiently transfected with hDAGLα-FLAG or hDAGLα-S472A-FLAG, hDAGLβ-FLAG or hDAGLβ-S443A-FLAG) as described in Example 16. The proteome was incubated at room temperature with vehicle (DMSO) or compound in 0.5 μL DMSO for 30 min. The membrane proteome sample was subsequently treated for 30 min with HT-01 probe (1 μM) or FP-Rh probe (1 μM). The reactions were quenched with 10 μL 3× Laemmli sample buffer (final concentrations: 60 mM Tris-Cl pH 6.8, 2% (w/v) SDS, 10% (v/v) glycerol, 5% (v/v) (3-mercaptoethanol, 0.01% (v/v) bromophenol blue). The samples were directly loaded and resolved on SDS page gel (10% acrylamide). The gels were scanned using a ChemiDoc MP system (Cy3 settings, 605/50 filter).The resolved proteins were transferred from the gels to a polyvinyldifluoride membrane for Western Blotting using a Trans-Blot® Turbo (BioRad). FLAG-tagged enzymes were stained using rabbit anti-FLAG as primary antibody, and goat-anti-rabbit HRP as secondary antibody. The blot was developed in the dark using a 10 mL luminal solution, 100 μL ECL enhancer and 3 μL H2O2. Chemiluminescence was visualized using a ChemiDoc XRS (BioRad).The percentage of DAGL activity remaining in the assayed samples was determined by measuring the integrated optical intensity of the fluorescent protein bands of the Western Blot using image lab 4.1. The relative intensity was compared to the vehicle (DMSO) treated proteins, which were set to 100%. IC50 values were determined by plotting a log(inhibitor) vs. normalized response (Variable slope) dose-response curve generated using Prism software (GraphPad). In general terms: Immunoblotting shows a protein as a band on a membrane.

Assay [2] addresses T2, Diacylglycerol lipase-alpha (Homo sapiens, UniProt Q9Y4D2).
T2 sequence (Q9Y4D2 whole entry): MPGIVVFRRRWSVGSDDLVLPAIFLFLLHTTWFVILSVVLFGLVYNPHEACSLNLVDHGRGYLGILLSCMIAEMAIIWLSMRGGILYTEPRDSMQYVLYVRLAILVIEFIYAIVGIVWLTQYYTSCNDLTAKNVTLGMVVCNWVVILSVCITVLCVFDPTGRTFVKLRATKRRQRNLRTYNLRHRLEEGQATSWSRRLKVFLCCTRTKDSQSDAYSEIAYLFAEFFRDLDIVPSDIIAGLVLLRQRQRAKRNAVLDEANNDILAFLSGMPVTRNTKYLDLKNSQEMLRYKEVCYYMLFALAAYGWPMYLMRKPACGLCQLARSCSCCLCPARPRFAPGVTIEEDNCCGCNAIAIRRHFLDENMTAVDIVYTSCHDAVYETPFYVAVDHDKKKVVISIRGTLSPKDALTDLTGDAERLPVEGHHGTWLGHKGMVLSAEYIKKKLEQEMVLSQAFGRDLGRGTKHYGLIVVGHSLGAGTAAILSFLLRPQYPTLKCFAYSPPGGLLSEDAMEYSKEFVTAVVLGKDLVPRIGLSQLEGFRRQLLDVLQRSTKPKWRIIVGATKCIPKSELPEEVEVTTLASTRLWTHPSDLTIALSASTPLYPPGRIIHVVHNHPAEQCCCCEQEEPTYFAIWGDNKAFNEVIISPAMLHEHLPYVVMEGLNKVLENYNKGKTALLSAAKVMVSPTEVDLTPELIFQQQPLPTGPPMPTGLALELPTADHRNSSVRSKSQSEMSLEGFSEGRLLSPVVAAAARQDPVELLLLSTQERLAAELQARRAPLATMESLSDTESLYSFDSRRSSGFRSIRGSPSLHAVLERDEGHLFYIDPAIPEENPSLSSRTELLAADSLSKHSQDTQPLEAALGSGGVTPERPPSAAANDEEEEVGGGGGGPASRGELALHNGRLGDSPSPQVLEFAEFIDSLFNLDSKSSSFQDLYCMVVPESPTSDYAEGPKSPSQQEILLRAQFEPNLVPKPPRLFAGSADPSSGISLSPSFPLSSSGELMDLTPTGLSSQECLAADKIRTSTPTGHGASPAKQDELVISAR
The assay is described as §1.

Regarding `CCC(CC)CN(CCc1ccccc1)C(=O)n1ncc(-c2ccc(OC(F)(F)F)cc2)n1`, the IC50 (usually the concentration needed to halve the response being measured) in assay [1] was under 0.4 µM.

For `CCC(CC)CN(CCc1ccccc1)C(=O)n1cc(-c2ccc(OC(F)(F)F)cc2)nn1`, the IC50 in assay [1] and in assay [2] was under 0.4 µM in each case.

The values are drawn from ChEMBL document CHEMBL5727581, “Triazole DAGLα inhibitors” (2020).
